In patent publication US20240382509A1, “Cannabinoids C- and O-glycosides possessing anti-proliferative and anti-metastatic properties and process for preparation thereof” (Council of Scientific and Industrial Research, priority 2021, published 2024):
pIC50: −log10 of the molar value.

Key:
[1] = test system: lung adenocarcinoma cells (A549); assay: MTT cell viability assay, A549; format: cell-based; details: Homo sapiens, A549, 48 h, read-out: Cytotoxicity (IC50) A549, MTT, 48 h
Protocol: (§1) Cell viability assay: The cell viability was determined by the standard MTT assay method. Briefly, Panc-1, HCT-116, A549, PC3, MIAPaca-2, HT-29, MDA-MB-231, MCF7 cells, and fR2cells were seeded in 96 well tissue culture plates (Nunc) at a density of 4×10^3 cells per well and treated with varying concentrations of the test compounds in triplicates. DMSO was taken as a vehicle, and its final concentration was maintained at 0.2% in the culture medium. Doxorubicin was employed as a positive control. After 44 h of incubation, MTT dye solution was added into the medium, and cells were incubated for another 4 h at 37° C. in 5% CO2. The amount of colored formazan derivatives formed was measured by taking optical density (OD) using a microplate reader (TECAN, Infinite M200 Pro) at 570 nm, and the percentage of cell viability was calculated. The IC50 values were calculated using GraphPad Prism software (Version 5.0).

PC3 cells = assay: MTT cell viability assay, PC3; format: cell-based; details: Homo sapiens, PC-3, 48 h, read-out: Cytotoxicity (IC50) PC3, MTT, 48 h
Protocol: as §1

MDA-MB-231 cells [2] = assay: MTT cell viability assay, MDA-MB-231; format: cell-based; details: Homo sapiens, aggressive breast cancer cell line of mesenchymal origin
Protocol: as §1
(§2) Now to study its anti-migratory and anti-metastatic role in another highly metastatic cancer cells of breast origin (MDA-MB 231) the IC50 value was determined by performing MTT assay (FIG. 6a).

MIAPaCa-2 cells [3] = assay: Phase contrast microscopy of cell morphology; format: cell-based, human; details: MIAPaCa-2, 0.5 μM to 5 μM
MIAPaCa-2 cells [4] = assay: In-situ gelatin degradation assay, MIAPaCa-2; format: cell-based, human; details: MIAPaCa-2, from 0.5 μM onwards, 36 h
Protocol: Matrix gelatin degradation assay. In-situ gelatin degradation assay is performed to detect the formation of migratory structures (invadopodia & filopodia). Briefly, glass coverslips were coated with gelatin tagged with FITC, and the coated coverslips were dipped into 70% ethanol and immersed into a 6 well plate filled with RPMI and the coverslips were kept in a CO2 incubator for 1-2 h for preconditioning. Later on, both MIAPaCa-2 and MDA-MB-231 cells were seeded onto the coverslips and kept overnight for attachment. Treatment of the compound 2a (0.5, 1.5, 3 & 5 μM) was given on the next day and continued for 36 h. Upon termination, the coverslips were washed with ice-cold PBS, and then it was fixed in 4% paraformaldehyde for 15 min and then washed with PBS. Finally, the coverslips were mounted using mounting media consist of glycerol, and the edges were sealed with nail polish. After drying, the slides were observed under a fluorescence microscope to assess a degraded area's presence. The fluorescent images were captured, and the images were further processed in Image J software (Version 1.50i) to quantify the degraded area in each field.
Now this particular derivative was further analysed for its ability to inhibit the molecular signatures of EMT. […]

MDA-MB-231 cells [5] = assay: Matrigel invasion assay, MDA-MB-231; format: cell-based, human; details: MDA-MB231, 0.5 μM to 5 μM
Protocol: Matrigel invasion assay: MIAPaCa-2 and MDA-MB-231 cells (1×10^6) were seeded onto matrigel coated inserts and treated with compound 2a (0.5, 1.5, 3 & 5 μM) for 36 h in 5% CO2 incubator at 37° C. The upper chamber is filled with serum-free media, and the lower half consists of 10% FBS supplemented media, thus creating a gradient of chemoattractant that facilitates the migration of cells. Upon termination, the inserts were washed with PBS, and the non-migratory cells were removed from the upper chamber by using a cotton plug. Further, the cells were fixed with methanol and stained later with 0.2% crystal violet. After drying, the inserts were observed under an inverted microscope at 20× magnification, and images were taken.
as §2

[6] = test system: γH2AX, RAD-51, BCL-2, Bax, caspase-3 in HCT-116 cells; assay: Immunoblot after combinatorial treatment of 5FU and compound 2a; format: cell-based
From the text: The effect of the compound 2a in combination with DNA damaging drug 5-Fluorouracil in colon adenocarcinoma cells was studied. […] Consequently, the major repair factor RAD-51 got diminished as compared to 5FU alone treated lane. The immunoblot results also depicted the downmodulation of cellular survival factor BCL-2 and subsequent upregulation of proapoptotic protein Bax (FIG. 8a). […] Moreover, the effect of the combinatorial treatment on chromosomal stability in HCT-116 cells by chromosome isolation and staining was studied.
The DNA damaging effect of compound 2a in combination with subtoxic doses of 5FU was further analyzed by Annexin/PI staining to check the activation of programmed cell death. […] Cumulatively, compound 2a elevated the DNA damaging effect and eventually leads to programmed cell death in combination with subtoxic doses of 5FU (FIG. 9b).

γH2AX in HCT-116 cells = assay: γH2AX immunofluorescence after combinatorial treatment of 5FU and compound 2a; format: cell-based; details: HCT-116, 750 nM 5FU+3 μM 2a
Protocol: Assessment of DNA damage by combinatorial treatment of 5FU and Compound 2a. An immunofluorescence study was performed to assess the expression of γH2AX, which tends to form a complex with damaged DNA resulting in the formation of a beads-like structure when tagged with a fluorescent labelled antibody. Briefly, HCT-116 cells were seeded in 8 well chamber slide and treated with vehicle, 750 nM 5FU+3 μM 2a for 36, 48, and 60 h and 750 nM 5FU for 60 h. Following termination of drug treatment, the cells were washed with ice-cold PBS and fixed with 4% paraformaldehyde for 10 min. Subsequently, permeabilization was done by incubating the cells with 0.1% Triton X-100. Before incubating with primary antibody (anti-γH2AX mouse monoclonal antibody), the cells were blocked with 5% BSA for 1-2 h; consequently, the cells were incubated with primary antibody (1:200) for overnight at 4° C. Subsequently, the cells were washed with ice-cold PBS for five times and further incubated with secondary anti-mouse antibody (1:500) for 30 min. The slides, after thorough washing with PBS, were mounted in DAPI containing mounting media. The images were captured in Floid imaging station at 20× optical magnification, and digital zooming was done up to […].
The effect of the compound 2a in combination with DNA damaging drug 5-Fluorouracil in colon adenocarcinoma cells was studied. […]

[7] = HCT-116, 2a in combination with 5FU

**Q.** `CCCCCc1cc(O[C@@H]2OC(CO)[C@@H](O)C(O)C2O)c2c(c1)OC(C)(C)[C@@H]1CCC(C)=C[C@@H]21` (stereo partly drawn) [Compound 2a, Δ^9-tetrahydrocannabinol-1-O-β-D-glucopyranoside] was tested. Which pIC50 [1] did it give?
**A.** Its pIC50 is 5.84.

**Q.** And the pIC50 (PC3 cells)?
**A.** Its pIC50 is 5.14.

**Q.** What about the pIC50 (MDA-MB-231 cells [2]) of the same compound?
**A.** Its pIC50 is 5.85.

**Q.** What about the “mesenchymal (fibroblastic) morphology” value (MIAPaCa-2 cells [3]) of the same compound?
**A.** Its value is “gradual loss of mesenchymal (fibroblastic) morphology”.

**Q.** And the gelatin degraded area (MIAPaCa-2 cells [4])?
**A.** The gelatin degraded area was “significant loss of gelatin degraded area”.

**Q.** What about the “migration in Matrigel coated invasion chamber” value (MDA-MB-231 cells [5]) of the same compound?
**A.** Its value is “periodical loss of migration”.

**Q.** And the caspase-3 cleavage ([6]; HCT-116, 2a in association with 5FU, 48 and 60 h)?
**A.** Its caspase-3 cleavage is “incite caspase-3 cleavage”.

**Q.** What about the BCL-2 survival factor [6, 7] of the same compound?
**A.** The BCL-2 survival factor was “downmodulation”.

**Q.** What about the “proapoptotic protein Bax” value [6, 7] of the same compound?
**A.** Its value is “upregulation”.

**Q.** What about the “expression of γH2AX protein (immunoblot)” value ([6]; HCT-116, 2a in combination with 5FU, 36 and 48 h) of the same compound?
**A.** The value was “enhanced expression”.

**Q.** And the RAD-51 repair factor ([6]; HCT-116, 2a in combination with 5FU, compared to 5FU alone)?
**A.** The RAD-51 repair factor was “diminished”.

**Q.** And the “expression of γH2AX (immunocytochemistry)” value (γH2AX in HCT-116 cells)?
**A.** Its value is “increased expression”.
